Reference: patent publication US10253081B2, “Glucagon analogues” (Zealand Pharma A/S, priority 2012, dated 2019)
Like-named read-outs stand apart in the source and are kept apart here. *1 amine or outer side, *2 acyl side, *3 side chain or, on linkers, in order; H or OH if unused. Where a SMILES comes first, the peptide text is derived from it. Side-chain parts run from the residue outwards. [ ]: non-standard residue; d: D form. The star is where a group is joined. γGlu = O=C(O)[C@H](CCC(=O)[*:2])N[*:1]; Palmitoyl = CCCCCCCCCCCCCCCC(=O)*; Aib = CC(C)(N)C(=O)O

Columns and labels:
[1] = target: T1, human glucagon receptor (Glucagon-R) (Homo sapiens, UniProt P47871); assay: Glucagon receptor efficacy assay (cAMP AlphaScreen, CHO cells); assay type: cell-based; settings: Table 1A; CHO cells expressing human Glucagon-R, cAMP; read-out: EC50 hGCGR CHO-K1
T1 construct: expressed in transfected cells
How it was run: (§1)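 Stably transfected CHO clones expressing human GLP-1R or glucagon receptor were treated with increasing peptide concentrations for 15 min at room temperature in KRBH containing 0.1 mM IBMX. After lysis, cAMP was quantified by AlphaScreen; EC50 and efficacy relative to GLP-1 or glucagon reference came from curve fitting.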

[2] = target: T2, human glucagon-like peptide 1 receptor (GLP-1R) (Homo sapiens, UniProt P43220); assay: GLP-1 receptor efficacy assay (cAMP AlphaScreen, CHO cells); assay type: cell-based; settings: Table 1A; for EC50: CHO cells expressing human GLP-1-R, cAMP, read-out: EC50 hGLP-1R CHO-K1; for Ratio GLP-1/Glucagon: EC50 [GLP-1R]/EC50 [Glucagon-R]
T2 construct: expressed in transfected cells
How it was run: as §1

[3] = Pharmacokinetic parameters after subcutaneous and intravenous administration to mice; assay type: in vivo; settings: male, mouse, plasma, 20 nmol/kg, C57Bl/6J mice; for half-life: read-out: Terminal half life (converted); for MRT: read-out: Mean Residence Time
Protocol: Pharmacokinetic parameters of the test compounds were determined after subcutaneous and intravenous administration to C57Bl/6J mice.
8 week old male C57Bl/6J mice were obtained from Taconic (Denmark) weighing approximately 20-25 g at time of arrival at the test facility. The mice were caged in European standard cages type III with light cycle of 12-hour dark and 12-hour light (lights on 06.00). Both diet, Altromin 1324 (Altromin, Germany), and water was administered ad libitum during the whole experimental period. The 8-11 week animals were imported to the laboratory at least 7 days before the start up of the experimental procedure in order to assure proper acclimatization. After sampling the mice were euthanized by cervical dislocation.
The compounds were first dissolved in 0.096% aqueous ammonia to a nominal concentration of 2 mg/ml, and then diluted to the desired dosing strength (4 μM) in sterile PBS containing 25 mM phosphate buffer, pH 7.4. Subcutaneous and intravenous injections corresponding to 20 nmol/kg were given. The GLP-1-glucagon dual agonists were administered for subcutaneous dosing in the neck region and via a lateral tail vein for intravenous dosing.
Blood samples (250 μl) were collected from the periorbital plexus at time points 0.5, 2, 4, 6, 12, 16, 20, 24 h for subcutaneous and 10, 30 min, 3, 6, 12, 18, 24 h for intravenous administration into ice-chilled K3EDTA tubes and centrifuged for 5 minutes at 4° C. within 20 minutes of sampling. Plasma (>100 μl) was separated to ice-chilled Micronic tubes, immediately frozen, and kept at −70° C. until analysed for plasma concentration for the respective GLP-1-glucagon compound using LC-MS/MS. Individual plasma concentration-time profiles were analysed by a non-compartmental approach in WinNonLin v6.3 (Pharsight inc, Mountain View, Calif., USA), and the resulting pharmacokinetic parameters determined.

T2 sequence (P43220 24-463): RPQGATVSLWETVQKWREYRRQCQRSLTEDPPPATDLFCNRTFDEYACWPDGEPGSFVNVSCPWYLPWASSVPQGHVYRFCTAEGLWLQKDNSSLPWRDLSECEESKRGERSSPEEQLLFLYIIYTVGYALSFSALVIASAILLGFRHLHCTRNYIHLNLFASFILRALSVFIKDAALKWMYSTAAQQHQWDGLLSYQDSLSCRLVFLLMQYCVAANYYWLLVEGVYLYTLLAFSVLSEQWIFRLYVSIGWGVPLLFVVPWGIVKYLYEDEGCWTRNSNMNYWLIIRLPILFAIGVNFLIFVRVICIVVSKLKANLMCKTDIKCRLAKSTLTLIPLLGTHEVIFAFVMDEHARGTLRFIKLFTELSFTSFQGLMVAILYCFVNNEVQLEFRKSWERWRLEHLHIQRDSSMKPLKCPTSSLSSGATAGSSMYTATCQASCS
T1 sequence (P47871 26-477): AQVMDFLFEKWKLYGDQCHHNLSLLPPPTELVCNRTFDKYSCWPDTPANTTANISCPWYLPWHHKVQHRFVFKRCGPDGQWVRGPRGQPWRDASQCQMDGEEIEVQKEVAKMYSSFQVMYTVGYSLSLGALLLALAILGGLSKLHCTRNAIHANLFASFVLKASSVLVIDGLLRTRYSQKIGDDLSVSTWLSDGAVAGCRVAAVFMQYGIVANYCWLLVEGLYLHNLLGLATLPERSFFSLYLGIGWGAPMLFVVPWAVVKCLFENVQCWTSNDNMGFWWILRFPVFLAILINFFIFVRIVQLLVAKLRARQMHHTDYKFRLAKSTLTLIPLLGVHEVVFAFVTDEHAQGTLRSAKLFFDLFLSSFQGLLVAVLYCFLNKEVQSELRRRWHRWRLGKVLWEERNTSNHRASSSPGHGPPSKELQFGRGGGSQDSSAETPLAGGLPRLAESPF

With `CCCCCCCCCCCCCCCC(=O)N[C@@H](CCC(=O)NCCCC[C@H](NC(=O)[C@H](CO)NC(=O)[C@H](CC(=O)O)NC(=O)[C@H](CC(C)C)NC(=O)[C@H](Cc1ccc(O)cc1)NC(=O)[C@H](CCCCN)NC(=O)[C@H](CO)NC(=O)[C@H](Cc1ccc(O)cc1)NC(=O)[C@H](CC(=O)O)NC(=O)[C@H](CO)NC(=O)[C@@H](NC(=O)[C@H](Cc1ccccc1)NC(=O)[C@@H](NC(=O)CNC(=O)[C@H](CCC(N)=O)NC(=O)C(C)(C)NC(=O)[C@@H](N)Cc1c[nH]cn1)[C@@H](C)O)[C@@H](C)O)C(=O)N[C@@H](C)C(=O)N[C@@H](C)C(=O)N[C@@H](Cc1c[nH]cn1)C(=O)N[C@@H](CC(=O)O)C(=O)N[C@@H](Cc1ccccc1)C(=O)N[C@H](C(=O)N[C@@H](CCC(=O)O)C(=O)N[C@@H](Cc1c[nH]c2ccccc12)C(=O)N[C@@H](CC(C)C)C(=O)N[C@@H](CC(C)C)C(=O)N[C@@H](CO)C(=O)O)C(C)C)C(=O)O` [Compound 1, H-H-Aib-QGTFTSDYSKYLDS-K(Hexadecanoyl-isoGlu)-AAHDFVEWLLS-OH] (H-H[Aib]QGTFTSDYSKYLDSK([γGlu-Palmitoyl])AAHDFVEWLLS-OH) the EC50 [1] was 0.9 nM, the EC50 [2] was 0.54 nM and the “Ratio GLP-1/Glucagon” value [2] was 0.60. For the same compound, the clearance ([3]; IV) was 0.17 mL/min/kg, the half-life ([3]; IV) was 5.2 h and the Tmax ([3]; SC) was 4 h. The bioavailability ([3]; SC) was 52%, the MRT ([3]; SC) was 12.6 h and the half-life ([3]; SC) was 6.2 h.
In the case of `CCCCCCCCCCCCCCCC(=O)N[C@@H](CCC(=O)NCCCC[C@H](NC(=O)[C@H](CO)NC(=O)[C@H](CC(=O)O)NC(=O)[C@H](CC(C)C)NC(=O)[C@H](Cc1ccc(O)cc1)NC(=O)[C@H](CCCCN)NC(=O)[C@H](CO)NC(=O)[C@H](Cc1ccc(O)cc1)NC(=O)[C@H](CC(=O)O)NC(=O)[C@H](CO)NC(=O)[C@@H](NC(=O)[C@H](Cc1ccccc1)NC(=O)[C@@H](NC(=O)CNC(=O)[C@H](CCC(N)=O)NC(=O)[C@H](CO)NC(=O)[C@@H](N)Cc1c[nH]cn1)[C@@H](C)O)[C@@H](C)O)C(=O)N[C@@H](C)C(=O)N[C@@H](C)C(=O)N[C@@H](Cc1c[nH]cn1)C(=O)N[C@@H](CC(=O)O)C(=O)N[C@@H](Cc1ccccc1)C(=O)N[C@H](C(=O)N[C@@H](CCC(=O)O)C(=O)N[C@@H](Cc1c[nH]c2ccccc12)C(=O)N[C@@H](CC(C)C)C(=O)N[C@@H](CC(C)C)C(=O)N[C@@H](CCCNC(=N)N)C(=O)N[C@@H](C)C(=O)O)C(C)C)C(=O)O` [Compound 3, H-HSQGTFTSDYSKYLDS-K(Hexadecanoyl-isoGlu)-AAHDFVEWLLRA-OH] (H-HSQGTFTSDYSKYLDSK([γGlu-Palmitoyl])AAHDFVEWLLRA-OH), the EC50 [1] is reported as 0.35 nM, the EC50 [2] is reported as 0.91 nM and the “Ratio GLP-1/Glucagon” value [2] is reported as 2.60. It also gave a clearance ([3]; IV) of 0.192 mL/min/kg, a half-life ([3]; IV) of 4.1 h and a Tmax ([3]; SC) of 6 h. The bioavailability ([3]; SC) was 52%, the MRT ([3]; SC) was 9.8 h and the half-life ([3]; SC) was 3.9 h.
For `CCCCCCCCCCCCCCCC(=O)N[C@@H](CCC(=O)NCCCC[C@H](NC(=O)[C@H](CCC(=O)O)NC(=O)[C@H](CC(=O)O)NC(=O)[C@H](CC(C)C)NC(=O)[C@H](Cc1ccc(O)cc1)NC(=O)[C@H](CCCCN)NC(=O)[C@H](CO)NC(=O)[C@H](Cc1ccc(O)cc1)NC(=O)[C@H](CC(=O)O)NC(=O)[C@H](CO)NC(=O)[C@@H](NC(=O)[C@H](Cc1ccccc1)NC(=O)[C@@H](NC(=O)CNC(=O)[C@H](CCC(N)=O)NC(=O)C(C)(C)NC(=O)[C@@H](N)Cc1c[nH]cn1)[C@@H](C)O)[C@@H](C)O)C(=O)N[C@@H](C)C(=O)N[C@@H](C)C(=O)N[C@@H](CCCCN)C(=O)N[C@@H](CC(=O)O)C(=O)N[C@@H](Cc1ccccc1)C(=O)N[C@H](C(=O)N[C@@H](CCC(=O)O)C(=O)N[C@@H](Cc1c[nH]c2ccccc12)C(=O)N[C@@H](CC(C)C)C(=O)N[C@@H](CC(C)C)C(=O)N[C@@H](CO)C(=O)N[C@@H](C)C(N)=O)[C@@H](C)CC)C(=O)O` [Compound 4, H-H-Aib-QGTFTSDYSKYLDE-K(Hexadecanoyl-isoGlu)-AAKDFIEWLLSA-NH2] (H-H[Aib]QGTFTSDYSKYLDEK([γGlu-Palmitoyl])AAKDFIEWLLSA-NH2), the EC50 [1] was 1.56 nM, the EC50 [2] was 0.38 nM and the “Ratio GLP-1/Glucagon” value [2] was 0.24. It also gave a clearance ([3]; IV) of 0.185 mL/min/kg, a half-life ([3]; IV) of 7.4 h and a Tmax ([3]; SC) of 4 h. For the same compound, the bioavailability ([3]; SC) was 53%, the MRT ([3]; SC) was 12.5 h and the half-life ([3]; SC) was 6.4 h.
With `CCCCCCCCCCCCCCCC(=O)N[C@@H](CCC(=O)NCCCC[C@H](NC(=O)[C@H](CO)NC(=O)[C@H](CC(=O)O)NC(=O)[C@H](CC(C)C)NC(=O)[C@H](Cc1ccc(O)cc1)NC(=O)[C@H](CCCCN)NC(=O)[C@H](CO)NC(=O)[C@H](Cc1ccc(O)cc1)NC(=O)[C@H](CC(=O)O)NC(=O)[C@H](CO)NC(=O)[C@@H](NC(=O)[C@H](Cc1ccccc1)NC(=O)[C@@H](NC(=O)CNC(=O)[C@H](CCC(N)=O)NC(=O)C(C)(C)NC(=O)[C@@H](N)Cc1c[nH]cn1)[C@@H](C)O)[C@@H](C)O)C(=O)N[C@@H](C)C(=O)N[C@@H](C)C(=O)N[C@@H](Cc1c[nH]cn1)C(=O)N[C@@H](CC(=O)O)C(=O)N[C@@H](Cc1ccccc1)C(=O)N[C@H](C(=O)N[C@@H](CCC(=O)O)C(=O)N[C@@H](Cc1c[nH]c2ccccc12)C(=O)N[C@@H](CC(C)C)C(=O)N[C@@H](CCC(=O)O)C(=O)N[C@@H](CO)C(=O)N[C@@H](C)C(N)=O)C(C)C)C(=O)O` [Compound 5, H-H-Aib-QGTFTSDYSKYLDS-K(Hexadecanoyl-isoGlu)-AAHDFVEWLESA-NH2] (H-H[Aib]QGTFTSDYSKYLDSK([γGlu-Palmitoyl])AAHDFVEWLESA-NH2) the EC50 [1] was 0.46 nM, the EC50 [2] was 0.16 nM and the “Ratio GLP-1/Glucagon” value [2] was 0.35. It also gave a clearance ([3]; IV) of 0.185 mL/min/kg, a half-life ([3]; IV) of 4 h and a Tmax ([3]; SC) of 4 h. For the same compound, the bioavailability ([3]; SC) was 81%, the MRT ([3]; SC) was 7.6 h and the half-life ([3]; SC) was 3.8 h.
In the case of `CCCCCCCCCCCCCCCC(=O)N[C@@H](CCC(=O)NCCCC[C@H](NC(=O)[C@H](CO)NC(=O)[C@H](CC(=O)O)NC(=O)[C@H](CC(C)C)NC(=O)[C@H](Cc1ccc(O)cc1)NC(=O)[C@H](CCCNC(=N)N)NC(=O)[C@H](CO)NC(=O)[C@H](Cc1ccc(O)cc1)NC(=O)[C@H](CC(=O)O)NC(=O)[C@H](CO)NC(=O)[C@@H](NC(=O)[C@H](Cc1ccccc1)NC(=O)[C@@H](NC(=O)CNC(=O)[C@H](CCC(N)=O)NC(=O)[C@H](CO)NC(=O)[C@@H](N)Cc1c[nH]cn1)[C@@H](C)O)[C@@H](C)O)C(=O)N[C@@H](C)C(=O)N[C@@H](C)C(=O)N[C@@H](CCC(=O)O)C(=O)N[C@@H](CC(=O)O)C(=O)N[C@@H](Cc1ccccc1)C(=O)N[C@H](C(=O)N[C@@H](CCC(=O)O)C(=O)N[C@@H](Cc1c[nH]c2ccccc12)C(=O)N[C@@H](CC(C)C)C(=O)N[C@@H](CC(C)C)C(=O)N[C@@H](CCCNC(=N)N)C(=O)N[C@@H](C)C(N)=O)C(C)C)C(=O)O` [Compound 6, H-HSQGTFTSDYSRYLDS-K(Hexadecanoyl-isoGlu)-AAEDFVEWLLRA-NH2] (H-HSQGTFTSDYSRYLDSK([γGlu-Palmitoyl])AAEDFVEWLLRA-NH2), the EC50 [1] is reported as 0.46 nM, the EC50 [2] is reported as 0.35 nM and the “Ratio GLP-1/Glucagon” value [2] is reported as 0.76. For the same compound, the clearance ([3]; IV) was 0.157 mL/min/kg, the half-life ([3]; IV) was 3.7 h and the Tmax ([3]; SC) was 4 h. It also gave a bioavailability ([3]; SC) of 47%, an MRT ([3]; SC) of 10.6 h and a half-life ([3]; SC) of 4.3 h.
